Like-named read-outs stand apart in the source and are kept apart here.
What was measured:
[1] = tested on: HepG2 cells; assay: Toxicity to HepG2 cells (cell survival rate, 48 h); type: cell-based, human; conditions: HepG2, 10 μM, not significantly toxic
From the text: The concentration was utilized to investigate the protective effects on APAP injured hepatocytes.
The concentration was utilized to investigate the protective effects on CCl4 injured hepatocytes.

[2] = tested on: ConA-induced acute immune liver injuries; assay: ConA-induced mouse acute immune liver injury model; type: in vivo; conditions: mouse serum; for ALT (U/L) / AST (U/L) / LDH (U/L): 200 mg/kg intragastric once a day x3, 20 mg/kg ConA tail vein, n = 10; for ALT reduction percent (%) / AST reduction percent (%) / LDH reduction percent (%): 200 mg/kg, versus ConA model group
Method: 1. Method for Establishment of a ConA-Induced Mouse Acute Immune Liver Injury Model and Method of Administration SPF-grade male ICR mice (20-22 g), after acclimatization, were randomly divided into 5 groups: a blank control group, a ConA-induced model group, a 200 mg/kg (+)IMM-H014 group, a 200 mg/kg (−)IMM-H014 group, and a 200 mg/kg (±)IMM-H014 group, 10 mice in each group. Each administration group was intragastrically administrated once a day, and it was totally administrated three times. The blank control group and the model group were intragastrically administrated with the same dose of physiological saline. At 2 hours after the last administration, the mice in each group except the blank control group, were injected once with 20 mg/kg ConA in the tail vein, and each administration dose was 10 ml/kg. The mice were in fasting but not in water deprivation for 16 h and then the animals waited for further treatment. 2. Determination of Biochemical Indexes The mice were decapitated and blood was taken, and the blood samples were kept still at room temperature for 2 h and centrifuged at 4000 rpm for 10 min, to separate the serum. The ALT, AST and LDH contents in the serum were detected with a full-automatic biochemical analyzer. The data each were presented as a number mean±standard deviation (x±SD).

[3] = Pharmacokinetics in male SD rats after intragastric administration; type: in vivo, rat; conditions: 50 mg/kg intragastric, plasma
Method: Male SD rats were intragastrically administrated with the single enantiomer and racemate of IMM-H014, to compare their pharmacokinetic characteristics in rat bodies.
36 male SD rats were randomly divided into 6 groups, 6 animals in each group, including: (+)IMM-H014 intragastric administration group, (−)IMM-H014 intragastric administration group, and (±)IMM-H014 intragastric administration group. The administration dosage was 50 mg/kg. The rats were in fasting for 12 hours before the administrations and they could freely drink water.
100 mg of the IMM-H014 raw material drug was weighed and dissolved in 20 ml of purified water to prepare a 5 mg/ml administration solution, which was administrated (1 ml/100 g) in a single dose according to body weights.
At 0 hour before administrations, and at 5 min, 10 min, 30 min, 1 h, 2 h, 3 h, 5 h, 8 h, 12 h and 24 h after administrations, 250 μL of blood was taken from fundus plexus venosus, placed in an EP tube containing 10 μL of heparin sodium, and centrifuged at 4000 rpm for 10 min, and then the blood plasma was taken and stored in a refrigerator at −80° C.
50 μL of a plasma sample was precisely pipetted, and after 10 μL of an internal standard working solution was added thereto, they were placed in a 1.5 ml EP. They were whirled for 30 s and added with 500 μl of ethyl acetate. Then, they were whirled and vibrated for 5 min, and after being kept still for 10 min at 4° C., they were centrifuged for 5 min at 13000 r. The supernatant was taken and dried by blowing N2 at 30° C. The residue was re-dissolved by adding 100 μL of the initial mobile phase and centrifuged for 5 min at 13000 r, and the supernatant was transferred into a sampling bottle for measurements.
• Chromatographic column: Agilent ZORBAX SB-C18 (2.1×100 mm, 3.5 μm) • Mobile phase A: water (0.1% formic acid, 1 mM ammonium acetate); mobile • phase B: acetonitrile (0.1% formic acid) • Column temperature: at 35° C.; sampling amount: 3 μL • Elution: 0-2 min: 40%-53% of the B; 2-3 min: 53%-40% of the B 4.4 Mass Spectrometry Conditions
Ion source: ESI; detection mode: positive ions; temperature of drying gases: 300° C.; flow rate of drying gases: nitrogen gas, 11 L/min; atomizing gas: nitrogen, […]; capillary voltage: 4000 V; scanning mode: Multiple Reaction Measurement (MRM); ion pairs and related voltage parameters were shown below:
The original data obtained after samples were collected was treated by adopting MassHunter QQQ data processing software, to obtain blood-drug concentration data; then, the pharmacokinetic parameters were calculated through DAS software; finally, the t-test was performed by adopting SPSS software, to compare if there were statistical differences in drugs having the same optical activity but in different batches and in drugs having different optical activities, wherein the P<0.05 was considered to have significant differences. In the study, by intragastrically administrating 3 groups of SD rats with the single enantiomer and racemate of the IMM-H014 respectively, their pharmacokinetic characteristics in the rat bodies were studied.

[4] = tested on: HepG2 cells; assay: Carbon tetrachloride (CCl4)-induced in vitro hepatocyte injury, MTT; type: cell-based, human; conditions: HepG2, 10 μM; for Cell survival rate increase (%): 0.6% CCl4, versus model group
Method: Human liver cancer HepG2 cells well retained the characteristics of normal human hepatocytes, and they were grown in a DMEM medium containing 10% of fetal calf cerium (containing 100 U/mL of penicillin and 100 μg/mL of streptomycin) at the culturing conditions: 37° C., 5% of CO2 and a saturated humidity. A solution containing 0.25% of trypsin and 0.02% of EDTA was used for digestions and passages.
A MTT method was adopted. The HepG2 cells were inoculated in a 96-well cell culture plate, and after 24 hour cultures, the (+)IMM-H014, the (−)IMM-H014 and the (±)IMM-H014 were added in a non-toxic concentration whilst the carbon tetrachloride (CCl4, a final concentration of 0.6%) was added thereto. A Bicyclol positive control group, a solvent control group and a model group were set for the experiment. They acted on the cells continuously for 24 h. The culture solution was discarded, and to each well, 100 μL of a MTT (0.5 mg/mL) solution was added to culture for 4 hours. The MTT solution was discarded, and to each well, 150 μL of DMSO was added. The mixture was oscillated by a mixing oscillator, and the absorbance value was measured at a wavelength of 570 nm in a microplate reader. Cell survival rate (%)=(OD mean of administration group/OD mean of solvent control group)×100%.
The data were presented as a number mean±standard deviation (x±SD).

COC(=O)c1cc(OC)c2c(c1-c1c(CN3CCOCC3)cc(OC)c3c1OCO3)OCO2 [(−)IMM-H014]
cell survival rate [1]: 90% | ALT (U/L) [2]: 25.6 ± 17.4^###& U/L | AST (U/L) [2]: 252.9 ± 233.5^##& U/L | LDH (U/L) [2]: 1690.0 ± 929.3^##& U/L | ALT reduction percent (%) [2]: 97.3% | AST reduction percent (%) [2]: 72.9% | LDH reduction percent (%) [2]: 54.4% | AUC (0-t) [3]: 5866 ± 2979 ng·h/mL | AUC (0-∞) [3]: 5892 ± 3005 ng·h/mL | CLz/F [3]: 178 ± 103 mL/min/kg | Cmax [3]: 3280 ± 1579 ng/mL | Tmax [3]: 18 ± 10.8 min | t1/2z [3]: 74.88 ± 19.8 min | Survival rates (%) ([4]; 0.6% CCl4, 24 h, MTT): 104.44% | Cell survival rate increase (%) [4]: 34.66%

COC(=O)c1cc(OC)c2c(c1-c1c(CN3CCOCC3)cc(OC)c3c1OCO3)OCO2 (racemic) [(±)IMM-H014]
cell survival rate [1]: 90% | ALT (U/L) [2]: 107.0 ± 108.7 U/L | AST (U/L) [2]: 725.0 ± 417.3 U/L | LDH (U/L) [2]: 3466.7 ± 1772.4 U/L | ALT reduction percent (%) [2]: 88.6% | AST reduction percent (%) [2]: 22.2% | LDH reduction percent (%) [2]: 6.4% | AUC (0-t) [3]: 5242 ± 3447 ng·h/mL | AUC (0-∞) [3]: 5268 ± 3432 ng·h/mL | CLz/F [3]: 233 ± 155 mL/min/kg | Cmax [3]: 3324 ± 2307 ng/mL | Tmax [3]: 12.5 ± 9 min | t1/2z [3]: 72.36 ± 16.2 min | Survival rates (%) ([4]; 0.6% CCl4, 24 h, MTT): 92.09% | Cell survival rate increase (%) [4]: 18.74%

COC(=O)c1cc(OC)c2c(c1-c1c(CN3CCOCC3)cc(OC)c3c1OCO3)OCO2 [(+)IMM-H014]
cell survival rate [1]: 90% | ALT (U/L) [2]: 44.4 ± 29.1 U/L | AST (U/L) [2]: 514.3 ± 310.7 U/L | LDH (U/L) [2]: 2680.0 ± 1190.8 U/L | ALT reduction percent (%) [2]: 95.3% | AST reduction percent (%) [2]: 44.8% | LDH reduction percent (%) [2]: 27.6% | AUC (0-t) [3]: 2876 ± 1978 ng·h/mL | AUC (0-∞) [3]: 2877 ± 1977 ng·h/mL | CLz/F [3]: 417 ± 262 mL/min/kg | t1/2z [3]: 59 ± 15.6 min | Cmax ([3]; male, SD, rat, po, 50 mg/kg, read-out: Cmax): 2280 ± 2000 ng/mL | Tmax ([3]; male, SD, rat, po, 50 mg/kg, read-out: Tmax): 20 ± 11.4 min | Survival rates (%) ([4]; 0.6% CCl4, 24 h, MTT): 87.32% | OD Mean ± SD ([4]; 0.6% CCl4, 24 h, MTT, 570 nm): 0.799 ± 0.014 | Cell survival rate increase (%) [4]: 12.59%

Reference: US12630520B2, “Left-handed bicyclic morpholine and salt thereof, preparation method therefor, pharmaceutical composition, and use” (Institute of Materia Medica, Chinese Academy of Medical …, priority 2019, dated 2026)
